Reference: PMC3898987 (Bioorganic & Medicinal Chemistry, 2013)
Residue numbers refer to the chain shown, from its start.

Legend:
[1] = biological target: T1, 5-HT3AB receptor, 5-HT3B subunit H73A (Homo sapiens, UniProt O95264+P46098, H66A); test: FlexStation membrane potential dye functional assay, HEK293 cells; settings: 5-HT concentration-response, 5-HT3AB with 5-HT3B H73A
T1 sequence (P46098 24-478): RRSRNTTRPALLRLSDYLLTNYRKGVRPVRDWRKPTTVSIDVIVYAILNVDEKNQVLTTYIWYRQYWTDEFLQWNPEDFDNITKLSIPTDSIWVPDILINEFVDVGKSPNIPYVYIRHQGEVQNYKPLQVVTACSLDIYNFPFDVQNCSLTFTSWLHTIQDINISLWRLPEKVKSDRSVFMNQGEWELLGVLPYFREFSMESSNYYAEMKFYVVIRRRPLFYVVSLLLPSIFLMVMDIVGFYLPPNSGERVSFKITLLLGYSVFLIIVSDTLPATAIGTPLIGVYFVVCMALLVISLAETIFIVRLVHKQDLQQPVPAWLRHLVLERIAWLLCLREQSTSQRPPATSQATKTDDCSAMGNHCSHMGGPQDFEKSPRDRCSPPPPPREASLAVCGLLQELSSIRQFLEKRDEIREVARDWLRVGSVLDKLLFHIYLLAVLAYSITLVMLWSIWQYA
T1 sequence (O95264 22-441 H66A): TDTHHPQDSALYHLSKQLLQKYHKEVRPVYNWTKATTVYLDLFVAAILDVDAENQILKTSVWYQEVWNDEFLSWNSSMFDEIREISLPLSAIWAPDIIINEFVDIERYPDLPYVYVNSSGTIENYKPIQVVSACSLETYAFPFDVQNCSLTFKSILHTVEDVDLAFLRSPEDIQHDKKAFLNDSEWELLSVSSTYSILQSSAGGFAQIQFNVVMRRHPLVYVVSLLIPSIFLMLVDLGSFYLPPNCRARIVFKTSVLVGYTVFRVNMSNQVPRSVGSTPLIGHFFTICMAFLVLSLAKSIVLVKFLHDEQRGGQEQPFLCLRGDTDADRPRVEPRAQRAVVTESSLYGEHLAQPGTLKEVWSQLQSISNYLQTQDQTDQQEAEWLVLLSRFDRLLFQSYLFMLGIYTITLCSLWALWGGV
Procedure: (§1) Human embryonic kidney (HEK) 293 cells were cultured on 90 mm tissue culture plates at 37 °C and 7% CO2 in a humidified atmosphere. They were grown in DMEM:F12 (Dulbecco’s Modified Eagle’s Medium/Nutrient Mix F12 (1:1)) with GlutaMAX I™ containing 10% fetal calf serum and passaged when confluent. […] For FlexStation assays, transfected cells were plated on 96-well plates and incubated 1–2 days before assay.
(§2) Fluorometric studies were undertaken using a FlexStation® (Molecular Devices, Sunnyvale, CA, USA) as previously described.[11]
(§3) Fluorescence was measured every 2 s for 200 s. […] Concentration–response and inhibition curves were obtained for each mutant, and the fluorescence values were normalized to the maximal response.

[2] = biological target: T2, 5-HT3AB receptor, 5-HT3B subunit F130A (Homo sapiens, UniProt O95264+P46098, F123A); test: as above; settings: 5-HT concentration-response, 5-HT3AB with 5-HT3B F130A
T2 sequence (P46098 24-478): T1 sequence (P46098 24-478)
T2 sequence (O95264 22-441 F123A): T1 sequence (O95264 22-441 H66A) with A45H, F102A
Procedure: as §1, §2, §3

5-HT3A receptor S163T = biological target: T3, 5-HT3A receptor S163T (Homo sapiens, UniProt P46098, S158T); test: radioligand saturation binding, transfected HEK293 membranes; settings: [3H]-palonosetron saturation, 5-HT3A S163T, 4 °C, 24 h
T3 sequence (P46098 24-478 S158T): T1 sequence (P46098 24-478) with S135T
Procedure: Human embryonic kidney (HEK) 293 cells were cultured on 90 mm tissue culture plates at 37 °C and 7% CO2 in a humidified atmosphere. They were grown in DMEM:F12 (Dulbecco’s Modified Eagle’s Medium/Nutrient Mix F12 (1:1)) with GlutaMAX I™ containing 10% fetal calf serum and passaged when confluent. For radioligand binding studies, cells in 90 mm dishes were transfected at 60–70% confluency using polyethyleneimine and incubated for 3–4 days before use. For FlexStation assays, transfected cells were plated on 96-well plates and incubated 1–2 days before assay. […]
Eight-point binding assays were performed to produce saturation binding curves. […] Radioactive counts were measured using a Beckman LS6000SC liquid scintillation counter (Fullerton, California, USA).
Data were analyzed by iterative curve fitting using GraphPad Prism v5 (San Diego, CA) according to the following equation: B=Bmax[L]^n/kdn+[L]^n where B is the amount of bound radioligand, Bmax is the maximum specific binding at equilibrium, [L] is the concentration of radioligand, Kd is the equilibrium dissociation constant of the radioligand, and n is the Hill coefficient.

5-HT3A receptor Y73A = biological target: T4, 5-HT3A receptor Y73A (Homo sapiens, UniProt P46098, Y68A); test: FlexStation membrane potential dye functional assay, HEK293 cells; format: cell-based; set-up: expressed in transfected cells; host or cells: HEK293; settings: inhibition of 5-HT (EC50 concentration) response, 45 min preincubation, 5-HT3A Y73A
T4 sequence (P46098 24-478 Y68A): T1 sequence (P46098 24-478) with Y45A
Procedure: For FlexStation assays, transfected cells were plated on 96-well plates and incubated 1–2 days before assay.
as §2, §3

SMILES | Hill Coefficient [1] | Hill Coefficient [2] | Kd (5-HT3A receptor S163T) [nM] | IC50 (5-HT3A receptor Y73A) [nM]
NCCc1c[nH]c2ccc(O)cc12 [5-HT, serotonin] | 1.6 ± 0.2 | 1.4 ± 0.2 | – | –
O=C1c2cccc3c2[C@H](CCC3)CN1[C@@H]1CN2CCC1CC2 [Palonosetron] | – | – | 0.22 ± 0.05 | 13.1 ± 1.6
